The record followed here is US10098352B2, “Honeybee repellents and uses thereof” (Inscent, Inc., priority 2011, dated 2018).

One assay relates to OBP2. The assay can be described thus: Fluorescent-quench ligand-protein-binding assay (OBP2 binding screen). Also noted: species or system Apis mellifera; key: Low, indicates no detectable binding to OBP2.; Moderate, indicates that 50% or less of the compound bound to OBP2.; Strong, indicates that 51% or more of the compound bound to OBP2. From the text: To identify a honeybee repellent disclosed herein, candidate compounds were screened based upon the fact that 2-heptanone is an established repellent of bees. 2-heptanone is thought to mediate its behavioral response through binding to a specific odorant-binding protein called OBP2. Therefore compounds that bind OBP2 have the potential to act as odor “mimics” of 2-heptanone. By utilizing a fluorescent-quench, ligand-protein-binding assay, 30,000 compounds from the DIVERSET® library (ChemBridge Corp., San Diego, Calif.), a chemical library, were screened and over 150 candidate compounds were isolated that bind OBP2 (Table 1). Such assays are generally known in the art. See, e.g., Briand, et al., Ligand-Binding Properties and Structural Characterization of a Novel Rat Odorant-Binding Protein Variant, Eur. J. Biochem. 267(10): 3079-3089 (2000); Briand, et al., Ligand Binding and Physico-Chemical Properties of ASP2, A Recombinant Odorant-Binding Protein From Honeybee (Apis mellifera L.), Eur. J. Biochem. 268(3): 752-760 (2001); Briand, et al., Characterization of a Chemosensory Protein (ASP3c) from Honeybee (Apis mellifera L.) as a Brood Pheromone Carrier, Eur. J. Biochem. 269(18): 4586-4596 (2002), each of which is hereby incorporated by reference in its entirety.

In assay [1] the test system is Apis mellifera Carniolan foraging worker honeybees. The assay can be described thus: Proboscis extension response (PER) assay in bees conditioned to 2-heptanone. As to conditions: final compound concentration 0.5% (TRITON X-100/water), 4 s exposure; only bees PER-positive to 2-heptanone and negative to controls counted. In kind it is in vivo. On the procedure: To determine whether a living honeybee can recognize a candidate compound, these compounds were tested using a proboscis extension response (PER) assay using classical conditioning approaches. Proboscis extension response conditioning is a case of appetitive learning, in which bees learn to associate odor stimuli with sucrose reward in the laboratory. In this case, bees were conditioned to produce a PER to 2-heptanone as the conditioned stimulus and a sugar reward as the unconditioned stimulus. These trained bees were then exposed to an odor pulse of a candidate compound to test whether a candidate compound would also produce a PER. If the candidate compound “mimics” 2-heptanone then the honeybee will extend its proboscis.
For conditioning procedures, Apis mellifera Carniolan foraging worker honeybees were obtained from a local apiary (typically 60 bees per shipment). The honeybees were held overnight in insect cages with food and water freely available, in an environmentally controlled room on a light cycle similar to the ambient cycle at the time of the assay.
For conditioning procedures, all tests were done in an odorant delivery apparatus set inside a fume hood. The apparatus comprised a set of open-ended, horizontal, 3 cm diameter by 10 cm long plastic tubes. Each tube was designed where a honeybee could be positioned at the distal end of a tube, with the opening at the other end of the tube located proximal to an inlet of the fume hood. To deliver an odorant, room air was pumped by a diaphragm pump through a particle filter via 0.25 inch plastic tubing at approximately 0.7 m/sec. The air flow passes into the headspace above an odorant (0.5% [v/v]2-heptanone dissolved in odorless light paraffin oil) contained in a 100 mL bottle. The headspace air then passes through another plastic tube to a manifold of 4-way valves, each of which was attached near the proximal end of a plastic tube containing a bee. Each bee was exposed separately for a desired time period to the odorant by opening and closing the appropriate valve. When each valve was closed, the odor was flushed away immediately by the continuous fume hood air stream.
To train a honeybee to respond to a conditioned and unconditioned stimuli, bees were placed, without anesthesia, in individual 1.5 mL micro-centrifuge holding tubes and held overnight without access to food or water. The holding tubes containing the starved bees were placed in racks in groups of eight. One rack at a time was placed behind the odorant delivery apparatus so that each bee's head is centered at the distal end of a horizontal plastic tube. Each bee was exposed to the 2-heptanone odorant alone for four seconds, and then while being fed an 80% sucrose solution for and additional three seconds. The sucrose solution was delivered on a piece of saturated filter paper held in forceps. […] Positive and negative responses were recorded. A positive PER was scored when a bee extended its proboscis before the sucrose appeared. In a typical trial, 48 individual bees were subjected to conditioning. Six rounds of training were done before testing began, and typically a majority of the bees were successfully conditioned by the second or third round of training.
After conditioning, honeybees were tested with the candidate compounds the same day or on the following day or, most commonly, both. When held overnight, bees were fed with sucrose and kept in their holding tubes. When tested the day after training, bees were given one or more rounds of conditioning with 2-heptatone to refresh their memories. Candidate compounds stocks were made at 5% (w/v) in polyoxyethylene octyl phenyl ether (TRITON® X-100), a non-ionic detergent/surfactant, and stored at 4° C. This detergent is similar to substances used as carriers for a variety of commercial pest-control agents, can act as a solvent for both hydrophilic and hydrophobic substances, and is itself nearly odorless. […]

With `CCOC(=O)C1=C(C)NC(C)=C(C(=O)OC)C1c1ccc(Br)cc1` (centres unmarked) [compound 41], the “OBP2 binding characteristic of compound” value in the assay on OBP2 is listed as “Moderate (Moderate, indicates that 50% or less of the compound bound to OBP2.)”. Further, the “2-heptanone positive bees testing positive to compound” value in assay [1] came out at 1.4%.
Consider `Cc1ccc2c(c1Br)C(=NNC(=O)C1CC13CCC3)C(=O)N2` (centres unmarked) [compound 55], for which the “OBP2 binding characteristic of compound” value in the assay with OBP2 is on record as “Moderate (Moderate, indicates that 50% or less of the compound bound to OBP2.)”. In addition, in assay [1], the “2-heptanone positive bees testing positive to compound” value is recorded as 13.6%.
In the case of `COc1cc(C)c(CN2CCN(CCO)CC2)cc1C` [compound 31], the “2-heptanone positive bees testing positive to compound” value in assay [1] came out at 0.0%.
On the same count and under the same terms, the figure for `CCN(CC)c1ccc2c(C)c([N+](=O)[O-])c(=O)oc2c1` [compound 6] is 0.0%.
With `O=C(Nc1ccccc1)Nc1ccccc1C#Cc1ccccc1` [compound 57], the “OBP2 binding characteristic of compound” value in the assay with OBP2 is “Moderate (Moderate, indicates that 50% or less of the compound bound to OBP2.)”. Also, the “2-heptanone positive bees testing positive to compound” value in assay [1] amounted to 16.7%.
Turning to `CC1CN(c2ccc([N+](=O)[O-])c(NCCOc3ccc(Cl)cc3)c2)CCN1` (centres unmarked) [compound 60], the “OBP2 binding characteristic of compound” value in the assay with OBP2 was “Moderate (Moderate, indicates that 50% or less of the compound bound to OBP2.)”. In assay [1], the “2-heptanone positive bees testing positive to compound” value is recorded as 25.0%.
In the case of `O=C(NCCCOC(=O)c1ccc(Cl)cc1)c1ccc(Cl)cc1` [compound 58], the “OBP2 binding characteristic of compound” value in the assay on OBP2 is given as “Moderate (Moderate, indicates that 50% or less of the compound bound to OBP2.)”. Also, the “2-heptanone positive bees testing positive to compound” value in assay [1] is given as 8.3%.
Regarding `COc1ccc2ccccc2c1C=NN1C(=O)c2ccccc2C1=O` [compound 13], in assay [1], the “2-heptanone positive bees testing positive to compound” value was determined as 8.7%.
In the case of `O=[N+]([O-])c1cc2c(cc1CN1CCSCC1)OCO2` [compound 47], the “2-heptanone positive bees testing positive to compound” value in assay [1] is given as 18.3%.
On the same count and under the same terms, next, `COC(=O)C1=C(C(=O)OC)SC(=C2C(=S)C(C)(C)N(C)c3ccccc32)S1` [compound 4]: 4.7%.
`COc1ccc(CN2CCN(C)CC2)c(C)c1C` [compound 25]: the “OBP2 binding characteristic of compound” value in the assay with OBP2 was “Low*”. Also, the “2-heptanone positive bees testing positive to compound” value in assay [1] is 6.6%.
With `COC(=O)c1cc(S(=O)(=O)Nc2ccc(Br)cc2)ccc1Cl` [compound 44], the “OBP2 binding characteristic of compound” value with OBP2 is “Moderate (Moderate, indicates that 50% or less of the compound bound to OBP2.)”. Moreover, in assay [1], the “2-heptanone positive bees testing positive to compound” value was 7.3%.
Turning to `CCN1C(=O)C(=Cc2ccc(O)cc2)SC1=S` [compound 15], the “OBP2 binding characteristic of compound” value in the assay with OBP2 was “Strong (Strong, indicates that 51% or more of the compound bound to OBP2.)”. The “2-heptanone positive bees testing positive to compound” value in assay [1] was 4.1%.
On to `COc1cc(CN2CCN(Cc3ccc4c(c3)OCO4)CC2)c([N+](=O)[O-])cc1OC` [compound 46], for which the “2-heptanone positive bees testing positive to compound” value in assay [1] was 12.8%.
Consider `COc1ccc(CN2CCOCC2)c(C)c1C` [compound 33], for which, in the assay on OBP2, the “OBP2 binding characteristic of compound” value is recorded as “Low*”. Further, the “2-heptanone positive bees testing positive to compound” value in assay [1] came out at 8.5%.
With `O=c1[nH]c2ccccc2nc1-c1ccccc1NCc1ccc(F)cc1` [compound 18], the “OBP2 binding characteristic of compound” value with OBP2 is given as “Strong (Strong, indicates that 51% or more of the compound bound to OBP2.)”. In addition, the “2-heptanone positive bees testing positive to compound” value in assay [1] is given as 4.1%.
As to `O=[N+]([O-])c1ccc(N2CCOCC2)cc1OCCOc1ccccc1` [compound 14], the “OBP2 binding characteristic of compound” value in the assay with OBP2 was “Moderate (Moderate, indicates that 50% or less of the compound bound to OBP2.)”. Further, the “2-heptanone positive bees testing positive to compound” value in assay [1] turned out to be 3.9%.
For `O=[N+]([O-])c1cc2c(cc1CN1CCN(c3cccc(Cl)c3)CC1)OCO2` [compound 64], in the assay with OBP2, the “OBP2 binding characteristic of compound” value is “Moderate (Moderate, indicates that 50% or less of the compound bound to OBP2.)”. In addition, in assay [1], the “2-heptanone positive bees testing positive to compound” value was found to be 7.0%.
Take `CC1=CC(C)(C)N(C(=O)c2ccc(Br)cc2)c2ccccc21` [compound 11]: the “OBP2 binding characteristic of compound” value with OBP2 was “Moderate (Moderate, indicates that 50% or less of the compound bound to OBP2.)”. Further, in assay [1], the “2-heptanone positive bees testing positive to compound” value was determined as 4.8%.
As for `Ic1ccc(-c2cn3ccsc3n2)cc1` [compound 53], in the assay on OBP2, the “OBP2 binding characteristic of compound” value is “Moderate (Moderate, indicates that 50% or less of the compound bound to OBP2.)”. The “2-heptanone positive bees testing positive to compound” value in assay [1] is reported as 18.2%.
Take `Cc1cc(O)c(C2=Nc3ccccc3SC(c3ccc(O)cc3)C2)c(=O)o1` (centres unmarked) [compound 35]: the “OBP2 binding characteristic of compound” value in the assay with OBP2 was “Moderate (Moderate, indicates that 50% or less of the compound bound to OBP2.)”. The “2-heptanone positive bees testing positive to compound” value in assay [1] was found to be 9.0%.
With `COc1ccc(CN(C)CCN(C)C)c(C)c1C` [compound 66], the “2-heptanone positive bees testing positive to compound” value in assay [1] is 3.1%.
In the case of `O=[N+]([O-])c1cc2c(cc1CN1CCN(c3ccccc3)CC1)OCO2` [compound 61], the “OBP2 binding characteristic of compound” value in the assay on OBP2 was “Moderate (Moderate, indicates that 50% or less of the compound bound to OBP2.)”. For the same compound, the “2-heptanone positive bees testing positive to compound” value in assay [1] is reported as 17.4%.
For `CCCCn1c(=O)c(C(=O)NCc2ccccn2)c(O)c2ccccc21` [compound 16], the “OBP2 binding characteristic of compound” value in the assay on OBP2 is “Strong (Strong, indicates that 51% or more of the compound bound to OBP2.)”. Moreover, in assay [1], the “2-heptanone positive bees testing positive to compound” value was 6.2%.
Consider `O=C(C=Cc1c[nH]c2ccccc12)c1ccc(-c2ccccc2)cc1` [compound 52], for which the “2-heptanone positive bees testing positive to compound” value in assay [1] came out at 13.9%.
`CN1CCN(Cc2cc3c(cc2[N+](=O)[O-])OCO3)CC1` [compound 45]: the “2-heptanone positive bees testing positive to compound” value in assay [1] was 11.6%.
Same read-out and setting: the figure for `CN(CCc1ccccn1)Cc1cc2c(cc1[N+](=O)[O-])OCO2` [compound 48] is 18.9%; for `CCOc1ccc(C=Nc2ccc(Br)c(Cl)c2)cc1` [compound 12] it is 5.8%.
As to `COc1ccc(CN(C)CCN(C)C)c(C)c1C` [compound 32], the “2-heptanone positive bees testing positive to compound” value in assay [1] was determined as 2.4%.
`O=[N+]([O-])c1cc2c(cc1CN1CCN(c3cccc(Cl)c3)CC1)OCO2` [compound 24]: in assay [1], the “2-heptanone positive bees testing positive to compound” value is recorded as 4.8%.
On to `COc1ccc(CN2CCN(C)CC2)c(C)c1C` [compound 62], for which the “2-heptanone positive bees testing positive to compound” value in assay [1] came out at 11.6%.
The same measure, in the same setting: the figure for `COc1ccc(CN2CCN(Cc3cccc(C)c3)CC2)cc1` [compound 65] is 6.3%.
On to `COc1ccccc1N1C(=O)C(=Cc2ccc(Cl)cc2)SC1=S` [compound 5], for which the “2-heptanone positive bees testing positive to compound” value in assay [1] is 7.1%.
Same read-out and setting: the figure for `COc1ccc(CN2CCN(c3ccc(C)cc3)CC2)c(C)c1C` [compound 49] is 0.0%.
On the same count and under the same terms, the figure for `COc1ccc(CN2CCOCC2)c(C)c1C` [compound 63] is 10.9%; for `O=C(C=Cc1c[nH]c2ccccc12)c1ccc(C(=O)C=Cc2c[nH]c3ccccc23)cc1` [compound 51] it is 14.8%.
